# ChEMBL document CHEMBL5724914, “Linking interpersonal differences in gut microbiota composition and drug biotransformation activity” (2024)
# Key:
# [1] = (§1) The drug is tested on Z-030 corresponding to mouse gut metagenome with ENA study accession number: PRJEB37062 and ENA sample accession number: ERS12561829 for biotransformation under anaerobic condition. The drug concentrations were measured over 9 timepoints collected between 0 and 24 hours of incubation by liquid-chromatography-coupled mass spectrometry (LC–MS); details: 2 µM
# [2] = as §1, with “Z-027” for “Z-030”, “to” for “to mouse gut”, “ERS12561826” for “ERS12561829”; details: 2 µM
# [3] = as §1, with “Z-026” for “Z-030”, “to” for “to mouse gut”, “ERS12561825” for “ERS12561829”; details: 2 µM
# [4] = as §1, with “Z-025” for “Z-030”, “rabbit” for “mouse”, “ERS12561824” for “ERS12561829”; details: 2 µM
# [5] = as §1, with “Z-021” for “Z-030”, “to” for “to mouse gut”, “ERS12561820” for “ERS12561829”; details: 2 µM
# [6] = as §1, with “Z-014” for “Z-030”, “rat” for “mouse”, “ERS12561814” for “ERS12561829”; details: 2 µM
# [7] = as §1, with “WLS-310” for “Z-030”, “human” for “mouse”, “ERS12561785” for “ERS12561829”; details: 2 µM
# [8] = as §1, with “WLS-220” for “Z-030”, “human” for “mouse”, “ERS12561769” for “ERS12561829”; details: 2 µM
# [9] = as §1, with “WLS-086” for “Z-030”, “human” for “mouse”, “ERS12561752” for “ERS12561829”; details: 2 µM
# [10] = as §1, with “WLS-027” for “Z-030”, “human” for “mouse”, “ERS12561744” for “ERS12561829”; details: 2 µM
# [11] = as §1, with “WLS-007” for “Z-030”, “human” for “mouse”, “ERS12561742” for “ERS12561829”; details: 2 µM
# [12] = as §1, with “WLS-006” for “Z-030”, “human” for “mouse”, “ERS12561741” for “ERS12561829”; details: 2 µM
# [13] = human gut metagenome, 24 h, 2 µM
# [14] = human gut metagenome, 24 h, 2 µM; remark: listed apart in the source
# [15] = human gut metagenome, 24 h, 2 µM; remark: listed apart in the source
# [16] = human gut metagenome, 24 h, 2 µM; remark: listed apart in the source
# [17] = human gut metagenome, 24 h, 2 µM; remark: listed apart in the source
# [18] = human gut metagenome, 24 h, 2 µM; remark: listed apart in the source
# [19] = human gut metagenome, 24 h, 2 µM; remark: listed apart in the source
# [20] = human gut metagenome, 24 h, 2 µM; remark: listed apart in the source
# Also: call rule not given here.
Compound,Bacterial Biotransformation [1],Bacterial Biotransformation [2],Bacterial Biotransformation [3],Bacterial Biotransformation [4],Bacterial Biotransformation [5],Bacterial Biotransformation [6],Bacterial Biotransformation [7],Bacterial Biotransformation [8],Bacterial Biotransformation [9],Bacterial Biotransformation [10],Bacterial Biotransformation [11],Bacterial Biotransformation [12],Bacterial Biotransformation [13],Bacterial Biotransformation [14],Bacterial Biotransformation [15],Bacterial Biotransformation [16],Bacterial Biotransformation [17],Bacterial Biotransformation [18],Bacterial Biotransformation [19],Bacterial Biotransformation [20]
Nc1nc(NC2CC2)c2ncn([C@H]3C=C[C@@H](CO)C3)c2n1.Nc1nc(NC2CC2)c2ncn([C@H]3C=C[C@@H](CO)C3)c2n1.O=S(=O)(O)O [ABACAVIR SULFATE],Compound NOT metabolized,Compound NOT metabolized,Compound NOT metabolized,Compound NOT metabolized,Compound NOT metabolized,Compound NOT metabolized,Compound NOT metabolized,Compound metabolized,Compound metabolized,Compound NOT metabolized,Compound NOT metabolized,Compound metabolized,Compound metabolized,Compound metabolized,Compound metabolized,Compound metabolized,Compound metabolized,Compound metabolized,Compound metabolized,Compound metabolized
CCN(CC)CCNC(=O)c1ccc(NC(C)=O)cc1 [ACECAINIDE],Compound NOT metabolized,Compound NOT metabolized,Compound NOT metabolized,Compound NOT metabolized,Compound NOT metabolized,Compound NOT metabolized,Compound metabolized,Compound NOT metabolized,Compound metabolized,Compound NOT metabolized,Compound NOT metabolized,Compound NOT metabolized,Compound NOT metabolized,Compound metabolized,Compound NOT metabolized,Compound metabolized,Compound NOT metabolized,Compound metabolized,Compound metabolized,Compound metabolized
O=C1CN2Cc3c(ccc(Cl)c3Cl)N=C2N1 [ANAGRELIDE],Compound NOT metabolized,Compound NOT metabolized,Compound NOT metabolized,Compound NOT metabolized,Compound NOT metabolized,Compound NOT metabolized,Compound metabolized,Compound metabolized,Compound metabolized,Compound NOT metabolized,Compound metabolized,Compound metabolized,Compound metabolized,Compound NOT metabolized,Compound NOT metabolized,Compound metabolized,Compound metabolized,Compound metabolized,Compound metabolized,Compound metabolized
CN(C)C(=O)Oc1cc(OC(=O)N(C)C)cc(C(O)CNC(C)(C)C)c1 (stereo not given) [BAMBUTEROL],Compound NOT metabolized,Compound NOT metabolized,Compound NOT metabolized,Compound metabolized,Compound metabolized,Compound NOT metabolized,Compound metabolized,Compound metabolized,Compound metabolized,Compound NOT metabolized,Compound metabolized,Compound metabolized,Compound NOT metabolized,Compound NOT metabolized,Compound metabolized,Compound metabolized,Compound metabolized,Compound metabolized,Compound NOT metabolized,Compound metabolized
CCc1oc2ccccc2c1C(=O)c1cc(Br)c(O)c(Br)c1 [BENZBROMARONE],Compound NOT metabolized,Compound NOT metabolized,Compound NOT metabolized,Compound NOT metabolized,Compound NOT metabolized,Compound NOT metabolized,Compound metabolized,Compound metabolized,Compound metabolized,Compound metabolized,Compound metabolized,Compound metabolized,Compound metabolized,Compound metabolized,Compound metabolized,Compound metabolized,Compound metabolized,Compound metabolized,Compound metabolized,Compound metabolized
CC(NC(C)(C)C)C(=O)c1cccc(Cl)c1 (stereo not given) [BUPROPION],Compound NOT metabolized,Compound NOT metabolized,Compound NOT metabolized,Compound NOT metabolized,Compound NOT metabolized,Compound NOT metabolized,Compound NOT metabolized,Compound NOT metabolized,Compound NOT metabolized,Compound NOT metabolized,Compound NOT metabolized,Compound metabolized,Compound NOT metabolized,Compound NOT metabolized,Compound NOT metabolized,Compound NOT metabolized,Compound NOT metabolized,Compound NOT metabolized,Compound metabolized,Compound metabolized
O=C1CC2(CCCC2)CC(=O)N1CCCCN1CCN(c2ncccn2)CC1 [BUSPIRONE],Compound NOT metabolized,Compound NOT metabolized,Compound NOT metabolized,Compound NOT metabolized,Compound NOT metabolized,Compound NOT metabolized,Compound metabolized,Compound NOT metabolized,Compound metabolized,Compound NOT metabolized,Compound NOT metabolized,Compound NOT metabolized,Compound metabolized,Compound metabolized,Compound NOT metabolized,Compound metabolized,Compound metabolized,Compound metabolized,Compound metabolized,Compound metabolized
CCCC(C)(COC(N)=O)COC(=O)NC(C)C (stereo not given) [CARISOPRODOL],Compound NOT metabolized,Compound metabolized,Compound NOT metabolized,Compound metabolized,Compound NOT metabolized,Compound metabolized,Compound NOT metabolized,Compound metabolized,Compound metabolized,Compound metabolized,Compound metabolized,Compound metabolized,Compound metabolized,Compound metabolized,Compound metabolized,Compound metabolized,Compound metabolized,Compound metabolized,Compound metabolized,Compound metabolized
